We go through 1 molecule from PMC8808171, “Nonselective TRPC channel inhibition and suppression of aminoglycoside-induced premature termination codon readthrough by the small molecule AC1903” (The Journal of Biological Chemistry, 2022).

Experiment [1] deals with T1, TRPC5–C1 (Homo sapiens, UniProt P48995+Q9UL62).
T1 construct: expressed in transfected cells; host or cells: HEK T-REx (tetracycline-induced)
The experiment in a line: [Ca2+]i recordings (Fura-2), concatemeric TRPC5–C1 in HEK T-REx cells. As to conditions: activator EA (30 nM). It is filed as cell-based. Here is the method: Based on the findings described above, we wondered whether AC1903—which is typically used as a TRPC5 inhibitor at concentrations of 30–100 μM in cellular assays ([29], [56])—might have limited selectivity for TRPC5 channels and whether its effect on intracellular G418 levels and PTC readthrough might be the consequence of inhibition of other or multiple targets. All well-characterized TRPC channel inhibitors reported to date modulate multiple TRP(C) channels ([34], [35], [36]). […] Because limited data for the selectivity of AC1903 are available in the public domain, we decided to profile AC1903 against a selection of calcium-permeable cation channels by intracellular calcium ([Ca^2+]i) recordings using well-characterized cell lines and TRP channel activators ([46], [57], [58]), and the Ca^2+ indicator Fura-2. In these assays, cells (HEK 293, HEK T-REx, or CHO) overexpressing the relevant ion channel protein and loaded with Fura-2 AM (a cell-permeable precursor of Fura-2) were preincubated with various concentrations of AC1903 or vehicle (DMSO) for 30 min. Then, changes in ratiometric fluorescence (from background) were recorded upon addition of the respective ion channel activator.
HEK T-REx cells expressing tetracycline-inducible TRPC4, TRPC5, TRPC5–C1,TRPC4–C1, and hPiezo1 have been described previously ([46], [57], [59], [78]). […]

Experiment [2] deals with standard kinase panel. Details: method as in PMID 29217578. As to conditions: cited from earlier work.

T1 sequence (Q9UL62+P48995 fused): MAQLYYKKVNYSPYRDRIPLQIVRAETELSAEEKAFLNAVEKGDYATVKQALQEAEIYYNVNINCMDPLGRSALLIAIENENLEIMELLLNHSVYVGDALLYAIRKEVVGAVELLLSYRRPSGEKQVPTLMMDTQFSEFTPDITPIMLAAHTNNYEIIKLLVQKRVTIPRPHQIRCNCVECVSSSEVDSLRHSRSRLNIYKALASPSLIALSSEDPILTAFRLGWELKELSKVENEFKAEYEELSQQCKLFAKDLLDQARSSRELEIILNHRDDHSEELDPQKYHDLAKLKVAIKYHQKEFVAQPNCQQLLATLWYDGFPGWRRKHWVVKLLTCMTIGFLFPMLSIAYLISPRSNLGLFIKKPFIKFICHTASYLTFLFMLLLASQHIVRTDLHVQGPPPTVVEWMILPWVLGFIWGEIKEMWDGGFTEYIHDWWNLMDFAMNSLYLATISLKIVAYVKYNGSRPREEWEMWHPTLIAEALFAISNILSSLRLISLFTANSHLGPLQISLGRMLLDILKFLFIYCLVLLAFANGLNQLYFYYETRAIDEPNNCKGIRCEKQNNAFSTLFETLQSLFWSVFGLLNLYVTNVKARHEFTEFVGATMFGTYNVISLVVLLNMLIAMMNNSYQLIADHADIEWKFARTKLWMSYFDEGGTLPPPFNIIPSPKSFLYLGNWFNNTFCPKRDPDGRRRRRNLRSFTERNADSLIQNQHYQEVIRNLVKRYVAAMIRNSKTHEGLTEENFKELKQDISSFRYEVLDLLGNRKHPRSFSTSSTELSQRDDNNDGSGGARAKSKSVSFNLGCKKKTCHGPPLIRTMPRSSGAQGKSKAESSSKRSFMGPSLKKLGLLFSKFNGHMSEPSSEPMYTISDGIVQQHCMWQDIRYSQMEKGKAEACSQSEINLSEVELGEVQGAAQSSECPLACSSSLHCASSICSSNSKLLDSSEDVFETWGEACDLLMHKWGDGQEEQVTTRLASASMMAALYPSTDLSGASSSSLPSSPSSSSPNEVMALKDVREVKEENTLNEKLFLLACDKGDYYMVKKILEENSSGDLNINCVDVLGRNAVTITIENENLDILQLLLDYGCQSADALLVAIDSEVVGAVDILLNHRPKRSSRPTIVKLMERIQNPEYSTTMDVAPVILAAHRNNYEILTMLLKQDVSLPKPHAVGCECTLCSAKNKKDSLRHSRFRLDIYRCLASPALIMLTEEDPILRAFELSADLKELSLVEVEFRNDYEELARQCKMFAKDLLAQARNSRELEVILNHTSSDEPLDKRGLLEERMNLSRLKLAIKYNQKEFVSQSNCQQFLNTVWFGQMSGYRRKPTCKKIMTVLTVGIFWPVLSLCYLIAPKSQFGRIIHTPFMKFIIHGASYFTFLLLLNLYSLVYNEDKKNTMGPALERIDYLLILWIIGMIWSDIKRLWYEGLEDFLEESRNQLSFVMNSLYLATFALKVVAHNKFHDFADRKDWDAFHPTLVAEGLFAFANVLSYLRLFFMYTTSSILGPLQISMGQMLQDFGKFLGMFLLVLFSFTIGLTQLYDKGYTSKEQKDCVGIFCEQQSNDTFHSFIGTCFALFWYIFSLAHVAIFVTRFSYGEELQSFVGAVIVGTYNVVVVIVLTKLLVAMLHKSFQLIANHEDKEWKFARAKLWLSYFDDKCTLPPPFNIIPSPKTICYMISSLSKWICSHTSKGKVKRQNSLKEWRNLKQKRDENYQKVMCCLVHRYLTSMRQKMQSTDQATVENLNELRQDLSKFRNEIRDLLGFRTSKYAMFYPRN

For `c1ccc(Cn2c(NCc3ccco3)nc3ccccc32)cc1` [AC1903], the half-inhibitory concentration (IC50) in experiment [1] (HEK T-REx) was determined as 4.7 µM. In experiment [1], this molecule had a Hill slope of -1.3. The “off-target effects in a standard kinase panel” value in experiment [2] is recorded as “no off-target effects were found”.
